Measured values taken from patent US6652853B2, “Method for treating cancer using A33 specific antibodies and chemotherapeutic agents” (Ludwig Institute for Cancer Research, priority 2001, dated 2003).

Test system: cell cultures (cancer cells)
Assay: Cytotoxic effects in cell cultures, QFA, calicheamicin and huA33 conjugates
Conditions: added to cell cultures

## calicheamicin
  cytotoxic effects in vitro: weak cytotoxic effects
